Assay results: US9439975B2, “Small efficient cell penetrating peptides derived from the scorpion toxin maurocalcine” (Commissariat A L'Energie Atomique Et Aux Energies …, priority 2011, dated 2016)
Square brackets hold non-standard residues; d marks the D form. Ends that are not written are not given here. Abu = CC[C@H](N)C(=O)O

What was measured:
cells = details: earlier reports; cited from earlier work
[1] = target: ryanodine receptor type 1 (RyR1) (Oryctolagus cuniculus, UniProt P11716); details: earlier reports; cited from earlier work
Sequence of ryanodine receptor type 1 (RyR1) (P11716 whole entry): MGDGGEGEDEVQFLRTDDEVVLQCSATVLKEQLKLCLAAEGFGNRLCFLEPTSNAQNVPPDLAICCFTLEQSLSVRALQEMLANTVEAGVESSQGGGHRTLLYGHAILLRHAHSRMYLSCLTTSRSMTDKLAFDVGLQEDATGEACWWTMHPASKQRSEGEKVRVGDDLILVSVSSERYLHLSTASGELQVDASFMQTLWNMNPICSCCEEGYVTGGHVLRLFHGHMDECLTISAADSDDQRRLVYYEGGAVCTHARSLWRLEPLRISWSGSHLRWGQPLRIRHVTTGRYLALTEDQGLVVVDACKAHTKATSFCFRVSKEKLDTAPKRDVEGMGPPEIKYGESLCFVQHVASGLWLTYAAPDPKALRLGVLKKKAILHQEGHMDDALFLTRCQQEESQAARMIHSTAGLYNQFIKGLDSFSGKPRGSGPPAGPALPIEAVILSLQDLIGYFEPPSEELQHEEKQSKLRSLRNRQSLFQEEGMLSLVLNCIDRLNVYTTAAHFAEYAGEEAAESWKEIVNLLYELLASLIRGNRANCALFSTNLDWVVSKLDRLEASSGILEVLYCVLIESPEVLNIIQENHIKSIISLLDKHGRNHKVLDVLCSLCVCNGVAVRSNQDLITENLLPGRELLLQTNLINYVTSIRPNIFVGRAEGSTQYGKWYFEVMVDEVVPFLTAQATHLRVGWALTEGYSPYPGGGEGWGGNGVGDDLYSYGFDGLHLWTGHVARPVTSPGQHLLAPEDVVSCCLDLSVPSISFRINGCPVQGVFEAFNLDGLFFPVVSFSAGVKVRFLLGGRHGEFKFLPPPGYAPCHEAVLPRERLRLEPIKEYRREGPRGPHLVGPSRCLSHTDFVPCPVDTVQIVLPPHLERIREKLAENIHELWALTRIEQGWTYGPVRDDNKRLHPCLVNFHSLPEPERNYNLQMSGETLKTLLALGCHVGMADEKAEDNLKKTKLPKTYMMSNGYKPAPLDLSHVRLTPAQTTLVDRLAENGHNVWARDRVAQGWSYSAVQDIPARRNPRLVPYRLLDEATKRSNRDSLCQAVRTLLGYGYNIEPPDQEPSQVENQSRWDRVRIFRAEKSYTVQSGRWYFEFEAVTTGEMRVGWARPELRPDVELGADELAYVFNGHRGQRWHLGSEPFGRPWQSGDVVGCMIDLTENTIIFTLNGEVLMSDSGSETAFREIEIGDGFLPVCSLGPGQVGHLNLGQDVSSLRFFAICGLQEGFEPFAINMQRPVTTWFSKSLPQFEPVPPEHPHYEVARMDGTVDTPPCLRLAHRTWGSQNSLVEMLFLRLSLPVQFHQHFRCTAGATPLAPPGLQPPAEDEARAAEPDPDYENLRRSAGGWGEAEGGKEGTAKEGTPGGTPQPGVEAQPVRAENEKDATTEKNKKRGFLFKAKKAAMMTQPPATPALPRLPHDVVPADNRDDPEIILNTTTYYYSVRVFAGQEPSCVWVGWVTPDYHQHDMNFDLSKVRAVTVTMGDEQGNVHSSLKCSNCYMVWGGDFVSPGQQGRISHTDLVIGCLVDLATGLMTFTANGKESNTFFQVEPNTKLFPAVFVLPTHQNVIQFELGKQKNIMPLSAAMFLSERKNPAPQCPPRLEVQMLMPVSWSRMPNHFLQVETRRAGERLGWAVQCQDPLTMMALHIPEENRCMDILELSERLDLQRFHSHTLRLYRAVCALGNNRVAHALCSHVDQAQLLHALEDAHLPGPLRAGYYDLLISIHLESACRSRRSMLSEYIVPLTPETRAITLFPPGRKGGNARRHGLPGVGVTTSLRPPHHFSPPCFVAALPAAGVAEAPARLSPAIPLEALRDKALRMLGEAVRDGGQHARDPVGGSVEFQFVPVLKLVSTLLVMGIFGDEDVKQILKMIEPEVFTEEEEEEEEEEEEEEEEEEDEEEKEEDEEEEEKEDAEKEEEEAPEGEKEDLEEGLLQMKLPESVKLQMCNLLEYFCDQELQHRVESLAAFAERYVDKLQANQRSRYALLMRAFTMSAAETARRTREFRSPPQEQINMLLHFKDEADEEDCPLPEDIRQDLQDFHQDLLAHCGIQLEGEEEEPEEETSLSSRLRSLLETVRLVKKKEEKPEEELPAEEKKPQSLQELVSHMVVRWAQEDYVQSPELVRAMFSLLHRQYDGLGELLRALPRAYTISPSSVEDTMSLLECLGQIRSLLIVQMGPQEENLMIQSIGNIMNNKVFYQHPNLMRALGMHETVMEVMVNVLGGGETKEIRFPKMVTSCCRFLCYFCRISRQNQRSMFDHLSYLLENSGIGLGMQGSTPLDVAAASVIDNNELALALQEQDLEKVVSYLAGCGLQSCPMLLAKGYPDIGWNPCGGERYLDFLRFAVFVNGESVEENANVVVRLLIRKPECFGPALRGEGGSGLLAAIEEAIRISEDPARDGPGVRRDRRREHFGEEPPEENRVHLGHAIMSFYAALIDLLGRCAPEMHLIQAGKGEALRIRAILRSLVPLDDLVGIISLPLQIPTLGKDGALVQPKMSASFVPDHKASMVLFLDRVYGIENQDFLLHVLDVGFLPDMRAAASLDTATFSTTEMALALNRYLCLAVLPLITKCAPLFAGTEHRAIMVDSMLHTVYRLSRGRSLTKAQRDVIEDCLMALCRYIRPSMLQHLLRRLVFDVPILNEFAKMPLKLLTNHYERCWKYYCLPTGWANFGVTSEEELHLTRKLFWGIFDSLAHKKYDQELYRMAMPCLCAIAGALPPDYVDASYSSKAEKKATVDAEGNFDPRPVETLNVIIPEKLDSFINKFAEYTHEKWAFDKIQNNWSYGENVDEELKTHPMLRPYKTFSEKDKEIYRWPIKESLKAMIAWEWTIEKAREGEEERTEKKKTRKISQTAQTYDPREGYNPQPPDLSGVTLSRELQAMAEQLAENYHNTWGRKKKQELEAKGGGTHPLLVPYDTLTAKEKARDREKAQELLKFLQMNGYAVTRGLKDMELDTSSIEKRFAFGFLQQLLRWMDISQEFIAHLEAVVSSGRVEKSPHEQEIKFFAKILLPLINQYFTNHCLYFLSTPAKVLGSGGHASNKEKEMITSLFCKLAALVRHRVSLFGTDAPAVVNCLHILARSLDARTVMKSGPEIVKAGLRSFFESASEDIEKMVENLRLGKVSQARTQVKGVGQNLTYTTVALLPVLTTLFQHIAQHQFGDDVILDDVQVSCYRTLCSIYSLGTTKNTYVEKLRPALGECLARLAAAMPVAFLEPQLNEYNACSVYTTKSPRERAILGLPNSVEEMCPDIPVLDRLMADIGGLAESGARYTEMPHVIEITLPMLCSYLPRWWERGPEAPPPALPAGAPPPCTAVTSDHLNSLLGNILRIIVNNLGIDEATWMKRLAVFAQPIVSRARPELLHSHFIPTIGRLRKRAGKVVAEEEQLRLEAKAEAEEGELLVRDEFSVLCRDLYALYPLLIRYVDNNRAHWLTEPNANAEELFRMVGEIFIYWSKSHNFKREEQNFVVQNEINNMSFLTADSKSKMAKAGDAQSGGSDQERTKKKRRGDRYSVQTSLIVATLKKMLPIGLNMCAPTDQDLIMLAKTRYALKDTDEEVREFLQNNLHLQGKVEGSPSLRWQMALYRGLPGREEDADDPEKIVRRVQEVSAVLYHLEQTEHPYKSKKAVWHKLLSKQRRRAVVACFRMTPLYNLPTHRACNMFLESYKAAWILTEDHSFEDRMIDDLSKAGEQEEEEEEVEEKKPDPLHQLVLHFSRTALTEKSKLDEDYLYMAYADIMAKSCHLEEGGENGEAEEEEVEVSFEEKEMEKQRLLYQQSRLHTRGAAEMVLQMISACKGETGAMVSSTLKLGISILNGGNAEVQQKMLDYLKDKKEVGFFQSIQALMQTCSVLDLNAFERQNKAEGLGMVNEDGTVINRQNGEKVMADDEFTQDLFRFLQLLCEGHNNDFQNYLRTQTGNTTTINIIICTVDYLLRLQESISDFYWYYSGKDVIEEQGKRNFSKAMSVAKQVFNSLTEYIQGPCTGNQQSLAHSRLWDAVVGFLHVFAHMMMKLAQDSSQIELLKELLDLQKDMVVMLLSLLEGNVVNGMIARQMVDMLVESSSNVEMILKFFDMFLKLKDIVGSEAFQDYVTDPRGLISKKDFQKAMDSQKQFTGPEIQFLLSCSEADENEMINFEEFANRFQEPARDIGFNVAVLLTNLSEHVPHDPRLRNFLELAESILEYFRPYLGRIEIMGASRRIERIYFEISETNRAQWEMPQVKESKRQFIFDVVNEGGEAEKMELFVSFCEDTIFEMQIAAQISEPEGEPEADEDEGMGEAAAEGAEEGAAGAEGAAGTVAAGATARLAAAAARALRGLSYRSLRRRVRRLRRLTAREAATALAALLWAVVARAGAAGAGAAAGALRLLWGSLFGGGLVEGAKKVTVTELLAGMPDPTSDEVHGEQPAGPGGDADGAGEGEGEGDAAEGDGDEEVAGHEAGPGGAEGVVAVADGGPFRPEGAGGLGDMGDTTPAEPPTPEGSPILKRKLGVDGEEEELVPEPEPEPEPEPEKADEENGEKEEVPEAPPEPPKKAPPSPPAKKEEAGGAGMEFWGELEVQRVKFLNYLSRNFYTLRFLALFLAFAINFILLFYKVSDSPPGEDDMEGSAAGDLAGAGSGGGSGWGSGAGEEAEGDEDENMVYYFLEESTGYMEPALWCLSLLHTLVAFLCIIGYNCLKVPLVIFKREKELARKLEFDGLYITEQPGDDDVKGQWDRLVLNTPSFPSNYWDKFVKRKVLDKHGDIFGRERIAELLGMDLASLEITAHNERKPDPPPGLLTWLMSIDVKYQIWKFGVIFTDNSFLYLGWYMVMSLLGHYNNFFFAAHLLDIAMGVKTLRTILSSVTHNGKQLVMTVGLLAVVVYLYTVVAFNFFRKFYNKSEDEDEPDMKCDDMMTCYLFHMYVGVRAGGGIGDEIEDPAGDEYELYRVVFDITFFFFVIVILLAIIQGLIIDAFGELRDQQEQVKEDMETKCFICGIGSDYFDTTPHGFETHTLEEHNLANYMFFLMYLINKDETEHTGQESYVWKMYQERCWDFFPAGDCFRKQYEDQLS

[2] = upon intravenous injection; cited from earlier work
[3] = in vitro and in vivo; cited from earlier work
proteoglycans = details: cited from earlier work
CHO cells = assay: MTT assay of cell viability; format: cell-based, Chinese hamster; details: 1 or 10 μM peptide, 24 hrs
Experimental: Cells were seeded into 96-well micro plates at a density of approximately 8×10^4 cells/well. […] Control wells containing cell culture medium alone or with cells, both without peptide addition, were included in each experiment. 0.1% saponin was used as toxic agent for comparison. The cells were then incubated with 3-(4, 5-dimethylthiazol-2-yl)-2, 5-diphenyl-tetrazolium bromide (MTT) for 30 min. Conversion of MTT into purple colored MTT formazan by the living cells indicates the extent of cell viability. The crystals were dissolved with dimethyl sulfoxide (DMSO) and the optical density was measured at 540 nm using a microplate reader (Biotek ELx-800, MANDEL SCIENTIFIC INC.) for quantification of cell viability. All assays were run in triplicates.

Substance | cell penetration efficiency (cells) | pharmacological action on / interaction with RyR1 [1] | stability in vivo [2] | associated toxicity [3] | affinity of interaction with proteoglycans (proteoglycans) | cell toxicity, comparison (CHO cells)
GDCLPHLKLCKENKDCCSKKCKRRGTNIEKRCR [MCa] | penetrates into cells at very low concentrations | exquisite pharmacological activator | over 24 hrs | almost no associated toxicity | micromolar range | –
KDaaSKKaKRRGC (KD[Abu][Abu]SKK[Abu]KRRGC) [MCaUF14-25-C] | – | – | – | – | – | slightly more toxic than 1 μM except for MCaUF14-25-C
